Experimental data as given in US20120208781A1, “AMINOGLYCOSIDE DOSING REGIMENS” (Achaogen, Inc., priority 2009, published 2012).
In brackets after ≈: the same amount, converted by molar mass. Read-outs that look alike come from different tables or passages of the source.

What was measured:
[1] = tested on: Klebsiella; assay: MIC, further Brooklyn patient isolates: Klebsiella; format: cell-based; set-up: unit not given beside the values; conditions: Klebsiella (n = 1151)
Description: (§1) Minimum inhibitory concentrations (MIC) were determined by reference Clinical and Laboratory Standards Institute (CLSI) broth microdilution methods per M7-A7 [2006]. Briefly, serial two-fold dilutions of Compound 1 and comparator AGs (together, “the test compounds”) were prepared at 2× concentration in appropriate diluent. The dilutions were mixed in 96-well assay plates with bacterial inoculum. Bacteria were suspended in sterile saline and added to each assay plate to obtain a final concentration of 5.5×10^5 CFU/mL. The plates were incubated at 35° C. for 20 hours in ambient air. […] After incubation, assay plates were read using a microtiter plate reader at 600 nm.
(§2) Further studies analyzed a greater number of unique patient isolates obtained from Brooklyn, N.Y. hospitals (including those species described above). These species included Acinetobacter, E. coli, Enterobacter, Klebsiella, and Pseudomonas.

[2] = tested on: E. coli; assay: MIC, further Brooklyn patient isolates: E. coli; format: cell-based; set-up: unit not given beside the values; conditions: E. coli (n = 3071)
Description: as §1, §2

[3] = tested on: Enterobacter; assay: MIC, further Brooklyn patient isolates: Enterobacter; format: cell-based; set-up: unit not given beside the values; conditions: Enterobacter (n = 206)
Description: as §1, §2

[4] = tested on: cochlear hair cells; assay: Cytocochleogram analysis in 28-day guinea pig ototoxicity model; format: in vivo, guinea pigs; conditions: guinea pigs
Description: Following euthanasia and whole body intravascular perfusion with 4% paraformaldehyde, the temporal bones of the left and right ears were removed. Gross middle ear assessments were performed using a dissecting microscope. […] Following gross middle ear assessment, the cochleas of the left ear were fixed by intrascalar perfusion with 4% paraformaldehyde. Cochlea tissues of both ears were placed in 4% paraformaldehyde for approximately 1 hour. Tissues were then transferred to 0.5% paraformaldehyde, stored refrigerated, and shipped on gel packs to the Kresge Hearing Research Institute, Ann Arbor, Mich., for further processing and cytocochleogram analysis.
These guinea pig ototoxicity studies also included microscopic analysis of surgically dissected cochleas from each animal to assess hair cell damage (cytocochleograms). The underlying cause of aminoglycoside related hearing loss is damage to the hair cells of the auditory system after significant accumulation of aminoglycosides in the inner ear. In the cochlea, drug-induced hair cell loss typically progresses from the basal to the apical turns of the cochlea. Perception of high-frequency sounds, a function of the basal hair cells, is lost first; perception of low-frequency sounds, a function of the more apical hair cells, is the last to be lost (Selimoglu, E., Curr Pharm Des. 2007; 13(1):119-26). For obvious reasons, it is impractical to obtain cytocochleograms from each animal prior to dosing, and some hair cell loss is usually observed in control (vehicle dosed) animals in these guinea pig studies. This variability makes it difficult to determine whether hair cell loss observed post-treatment is due to the drug treatment, especially mild hair cell loss, […]

[5] = tested on: P. aeruginosa (PA); assay: MIC, broth microdilution, Brooklyn hospital isolates: P. aeruginosa; format: cell-based; conditions: PA (n = 33)
Description: (§3) In another study, the activity of Compound 1 against a collection of contemporary Gram-negative bacteria was determined. Unique patient isolates of P. aeruginosa (PA), A. baumannii (AB), K. pneumoniae (KP), E. coli (EC), and Enterobacter spp. (EB) from prior surveys at 16 Brooklyn, N.Y. hospitals were selected based on resistance patterns. The majority of isolates were fingerprinted by automated ribotyping. MICs were performed by broth microdilution. PCR was used to identify aminoglycoside-modifying enzymes (AMEs) in AB and KP and the KPC gene in Enterobacteriaceae (EN). The expression of the efflux genes mexA, C, E and X in PA, and adeB in AB was assessed by real-time RT-PCR.

[6] = tested on: K. pneumoniae (KP); assay: MIC, broth microdilution, Brooklyn hospital isolates: K. pneumoniae; format: cell-based; conditions: KP (n = 71)
Description: as §3

[7] = tested on: Enterobacter spp. (EB); assay: MIC, broth microdilution, Brooklyn hospital isolates: Enterobacter spp.; format: cell-based; conditions: EB (n = 30)
Description: as §3

[8] = tested on: rat kidney; assay: Rat nephrotoxicity model: serum markers of GFR (BUN, serum creatinine); format: in vivo, Sprague-Dawley rats; conditions: dose-response for BUN elevation
[9] = tested on: Gram-negative and Gram-positive clinical isolates; assay: MIC, CLSI broth microdilution, 235 worldwide isolates (all); format: cell-based; conditions: 235 isolates
Source text: In the first study, a total of 235 isolates were collected from medical centers worldwide and tested for susceptibility to Compound 1 and comparator agents by CLSI broth microdilution methods. […] Non-ENT GN pathogens included WT P. aeruginosa (PSA) and Acinetobacter spp. (ACB), and carbapenem (CARB)-R strains, including those with MBL and OXA enzymes, SA and coagulase-negative staphylococci (CoNS) included oxacillin-susceptible (MSSA/MS-CoNS) and —R (MRSA/MR-CoNS) strains.
as §1

[10] = tested on: E. coli (EC); assay: MIC, broth microdilution, Brooklyn hospital isolates: E. coli; format: cell-based; conditions: EC (n = 32)
Description: as §3

[11] = tested on: A. baumannii (AB); assay: MIC, broth microdilution, Brooklyn hospital isolates: A. baumannii; format: cell-based; conditions: AB (n = 38)
Description: as §3

[12] = tested on: rat kidney; assay: Rat nephrotoxicity model: kidney histopathology (H&E); format: in vivo, Sprague-Dawley rats; conditions: rats, 14 d once-daily
Description: This rat nephrotoxicity study design used 14 days of once-daily dosing of aminoglycosides in adult Sprague-Dawley rats. Rats were allowed full access to food and water, and aminoglycosides were dosed subcutaneously at 1 mL/kg dosing volume, formulated in water. Nephrotoxicity was assessed by monitoring changes in serum markers of glomerular filtration rate (GFR), namely blood urea nitrogen (BUN) and serum creatinine. Microscopic examination of kidney slices after fixation and hematoxylin and eosin (H&E) staining was also utilized, scoring for tubular dilation, cellular casts, interstitial inflammation, and regenerative changes to the tubules.

[13] = tested on: hearing function; conditions: guinea pig, in vivo
Description: The ototoxicity of aminoglycosides was investigated in 28-day studies in guinea pigs (executed at MPI Research Inc., Mattawan, Mich.). […] Animals assigned to the study had body weights within ±20% of the mean body weight. The vehicle and positive control articles were administered daily for 14 days during the study via bolus subcutaneous injection in the scapular region on the back of each animal. The control group received the vehicle in the same manner as the treated groups. Individual doses were based on the most recent body weights. […] The dose levels for these studies were selected based upon published accounts of aminoglycoside ototoxicity in the guinea pig using similar dosing regimes (e.g., Brummett, A. R. et al., J. Antimicrob Chemother, 1978 May; 4 Suppl A:73-83; Kitasato, I. et al., Chemotherapy, 1990; 36(2):155-68). Doses were chosen to maximize exposure while avoiding significant nephrotoxicity, which would have confounded the analysis given that aminoglycosides are renally cleared.
Clinical observations were conducted predose (Day 1), immediately following the completion of each vehicle or positive control article administration on dosing days, and daily thereafter. Body weights were measured and recorded predose (Day 1) and daily thereafter. Physical examinations were conducted pretest and on Day 28.
Bilateral in-vivo electrophysiology (auditory brainstem response) examinations were conducted pretest and prior to the terminal necropsy. Hearing function changes were measured by comparing auditory brainstem response (ABR) values at the end of the study period versus pre-dosing values of each individual animal. […] Additional ketamine and xylazine were administered as necessary. […] Following ABR evaluations, yohimbine (1 mg/kg) was administered via intraperitoneal (IP) injection as a reversal agent. At study termination (Day 29), necropsy examinations were performed, and designated tissues were collected, examined and rated, and preserved for processing and histopathological evaluation, as described below.

C[C@@H](O)[C@H]1C(=O)N2C(C(=O)O)=C(S[C@@H]3CN[C@H](C(=O)N(C)C)C3)[C@H](C)[C@H]12 [MEM, meropenem]
MIC50 [1]: ≦0.125 | MIC50 [2]: ≦0.125 | MIC90 [2]: ≦0.125 | MIC50 [3]: ≦0.125

NCC[C@H](O)C(=O)N[C@@H]1C[C@H](N)[C@@H](O[C@H]2O[C@H](CN)[C@@H](O)[C@H](O)[C@H]2O)[C@H](O)[C@H]1O[C@H]1O[C@H](CO)[C@@H](O)[C@H](N)[C@H]1O [amikacin]
animals with minimal loss of outer hair cells ([4]; 75 mg/kg/day): 3/6 | animals with minimal loss of outer hair cells ([4]; 150 mg/kg/day): 3/6 | animals with large loss of outer hair cells ([4]; 300 mg/kg/day): All animals | animals with some loss of inner hair cells ([4]; 300 mg/kg/day): 3/6 | Susceptible [5]: 94% | MIC50 ([5]; Pseudomonas aeruginosa): 4 µg/mL (≈ 6.83 µM) | MIC90 ([5]; Pseudomonas aeruginosa): 16 µg/mL (≈ 27.3 µM) | Susceptible [6]: 58% | MIC50 ([6]; Klebsiella pneumoniae): 16 µg/mL (≈ 27.3 µM) | MIC90 ([6]; Klebsiella pneumoniae): 64 µg/mL (≈ 109 µM) | Susceptible [7]: 93% | MIC50 ([7]; Enterobacter): 4 µg/mL (≈ 6.83 µM) | MIC90 ([7]; Enterobacter): 16 µg/mL (≈ 27.3 µM) | apparent relative nephrotoxicity (ranking) [8]: Neomycin≈Gentamicin>Tobramycin>Apramycin≈Paromomycin>Amikacin | overall sensitivity (S) [9]: 77.0% | Susceptible [10]: 91% | MIC50 ([10]; Escherichia coli): 4 µg/mL (≈ 6.83 µM) | MIC90 ([10]; Escherichia coli): 16 µg/mL (≈ 27.3 µM) | Susceptible [11]: 82% | MIC50 ([11]; Acinetobacter baumannii): 8 µg/mL (≈ 13.7 µM) | MIC90 ([11]; Acinetobacter baumannii): 64 µg/mL (≈ 109 µM) | Histopathology score (0 to 5 Scale): Casts ([12]; 10 mg/kg): 0 +/− 0 | Histopathology score (0 to 5 Scale): Dilation ([12]; 10 mg/kg): 0.2 +/− 0.4 | Histopathology score (0 to 5 Scale): Inflammation ([12]; 10 mg/kg): 0.4 +/− 0.5 | Histopathology score (0 to 5 Scale): Regeneration ([12]; 10 mg/kg): 0.2 +/− 0.4 | Histopathology score (0 to 5 Scale): Casts ([12]; 30 mg/kg): 0 +/− 0 | Histopathology score (0 to 5 Scale): Dilation ([12]; 30 mg/kg): 0 +/− 0 | Histopathology score (0 to 5 Scale): Inflammation ([12]; 30 mg/kg): 0.4 +/− 0.5 | Histopathology score (0 to 5 Scale): Regeneration ([12]; 30 mg/kg): 0.2 +/− 0.4 | Histopathology score (0 to 5 Scale): Casts ([12]; 100 mg/kg): 0 +/− 0 | Histopathology score (0 to 5 Scale): Dilation ([12]; 100 mg/kg): 0.2 +/− 0.4 | Histopathology score (0 to 5 Scale): Inflammation ([12]; 100 mg/kg): 0.6 +/− 0.5 | Histopathology score (0 to 5 Scale): Regeneration ([12]; 100 mg/kg): 0.6 +/− 0.5 | Histopathology score (0 to 5 Scale): Casts ([12]; 300 mg/kg): 0 +/− 0 | Histopathology score (0 to 5 Scale): Dilation ([12]; 300 mg/kg): 1.2 +/− 0.8 | Histopathology score (0 to 5 Scale): Inflammation ([12]; 300 mg/kg): 1.2 +/− 0.4 | Histopathology score (0 to 5 Scale): Regeneration ([12]; 300 mg/kg): 1.4 +/− 0.5 | clinical observations, body weights, physical examinations, macroscopic observations [13]: no vehicle or positive control article-related changes in any dose group | number of animals with hearing loss ([13]; male, Crl:HA (Albino Hartley), 75 mg/kg, 14 days): 1 of 6 | number of animals with hearing loss ([13]; male, Crl:HA (Albino Hartley), 150 mg/kg, 14 days): 2 of 6 | ABR threshold shift ([13]; male, Crl:HA (Albino Hartley), 300 mg/kg/day, 14 days): > 15 dB | hearing loss (ABR threshold changes) ([13]; male, Crl:HA (Albino Hartley), sc, 300 mg/kg, 14 days): hearing losses from moderate at 4 kHz, to severe at 10 kHz, and to profound at 20 kHz
